# Experimental data taken from patent US20230035127A1, “CULTURE AND DIFFERENTIATION OF PLURIPOTENT STEM CELLS” (University of Maryland, College Park, priority 2021, published 2023).
# Experiments:
# [1] = tested on: human eiPSCs (DF19-9-11T.H); test: 3D suspension culture of eiPSC spheroids with Rock inhibitor (morphology, size, cells per spheroid); format: cell-based; conditions: day −3
# Protocol: The timeline for the 4-day (from day −4 to 0) 3D culture and the subsequent 3D cardiac differentiation of iPSCs is illustrated in FIG. 1B. First, 3D eiPSC spheroids were obtained for 3D cardiac differentiation, for which the eiPSC colonies from 2D culture were detached and mechanically cut with a cell strainer (100 μm mesh size) into small iPSC clumps for suspension culture in the mTeSR medium for 4 days. Methylcellulose was added into the medium to enhance the medium viscosity and reduce fusion of the eiPSC clumps/spheroids during the suspension culture. During the first two days of 3D culture, the medium was supplemented with 1 μM RI (low RI) or 10 μM RI (high RI that has been commonly used for improving the survival/yield of human PSCs including iPSCs during culture), and no RI was used during the last two days of culture. […]
# To obtain 3D iPSC spheroids, the iPSC colonies under 2D culture at ˜80% confluence were treated with Versene for 2 min, rinsed with PBS, and further detached from the substrate by gentle pipetting. […] The dissociated cells were then resuspended in 1.4 ml of the aforementioned iPSC maintenance medium and the cell number was counted using a hemocytometer. […]
# [2] = tested on: eiPSC spheroids; test: Teratoma assay of eiPSC spheroids injected subcutaneously into NOD/SCID mice; format: in vivo; conditions: eiPSC spheroids from 1 and 10 μM RI groups, day 0, s.c. in NOD/SCID mice
# Protocol: To test the pluripotency of the cells in the 3D iPSC spheroids in vivo with the teratoma assay, the eiPSC spheroids were directly injected subcutaneously (s.c.) into the dorsal rear flank of severe combined immunodeficient mice (NOD.CB17-scid). A total of 2×10^6 cells in 300 μL of PBS was injected into each mouse (age: 5 weeks, and 5 mice per group). After 5 weeks, the mice were sacrificed, and the resulting teratoma were collected and fixed in 4% paraformaldehyde (PFA) for 3 days. Afterward, the samples were cut into small pieces of ˜0.5 cm^3, embedded in paraffin, and sectioned into slices of 5 μm thick. The slices were stained with hematoxylin and eosin (H&E) and imaged with a Zeiss LSM 710 microscope. All animal studies were approved by the Institutional Animal Care and Use Committee (IACUC, #R-MAY-18-24) at the University of Maryland, College Park.
# [3] = tested on: eiPSC-derived cardiac spheroids; test: Immunostaining of cryosectioned eiPSC-derived cardiac spheroids; format: cell-based, human; conditions: cardiac spheroids day 12.5
# Protocol: (§1) The iPSC spheroids and the iPSC-derived Cardiac spheroids were fixed in 4% PFA in 1×PBS at 4° C. overnight. The fixed spheroids were incubated sequentially in 10% and 15% sucrose solutions in saline for 4 h, respectively. Afterward, the spheroids were put in a plastic box and embedded in OCT for cryosectioning. Slices of the spheroids of 10 μm thick were obtained by cutting the frozen sample on a Leica cryostat platform and then immediately attached onto the Leica Apex high adhesive glass slides.
# (§2) For immunostaining, the slides were gently rinsed twice with 1×PBS to remove the OCT and then incubated with 0.1% Tween-20 and 5% normal goat serum in 1×PBS for 1 h at room temperature (RT) to block non-specific bindings. Later, the samples were incubated with primary antibodies at 4° C. overnight. The dilution and product information of the primary antibodies were as follows: OCT-4 (1:500 dilution, Cell Signaling Technologies), NANOG (1:500 dilution, Cell Signaling Technologies), SSEA-4 (1:500 dilution, Cell Signaling Technologies), cTnT (1:500 dilution, Cell Signaling Technologies), CONNEXIN-43 (CX-43, 1:400 dilution, Santa Cruz Biotechnology), DESMIN (1:500 dilution, Santa Cruz Biotechnology), α-ACTININ (1:500 dilution; Santa Cruz Biotechnology), BRACHYURY (1:500; Santa Cruz Biotechnology), NKX2.5 (1:500; Santa Cruz Biotechnology), NESTIN (1:500; R & D Systems), MUSASHI-1 (1:500; R & D Systems), and TUJ-1 (1:500; R & D Systems). Afterward, the samples were rinsed with 1×PBS thrice and then incubated with the associated secondary antibodies (goat anti-rabbit IgG FITC and goat-anti-mouse IgG PE, Invitrogen) in 1×PBS for 1.5 h at RT. Lastly, the samples were rinsed with 1 ml of 1×PBS for 3 min and the nuclei were stained with 1 μg/ml DAPI solution for 5 min at RT. The samples were imaged with the Zeiss LSM 710 microscope.
# [4] = tested on: IMR90-1 human iPSCs; test: Immunostaining of IMR90-1 cardiac spheroids; format: cell-based; conditions: day 12.5
# Protocol: as §1, §2
smiles,measurement,setting,value
"C[C@@H](N)[C@H]1CC[C@H](C(=O)Nc2ccncc2)CC1.Cl.Cl (relative stereo) [RI, (+)-(R)-trans-4-(1-aminoethyl)-N-(4-pyridyl) cyclo-hexanecarboxamide dihydrochloride]",morphology of eiPSC spheroids,[1]; 1 μM RI,remain solid-like
same,morphology of eiPSC spheroids,[1]; 10 μM RI,evident core-shell morphology with a cavity-like core
same,teratoma formation (pluripotency in vivo),[2],forming teratomas consisting of tissues from all the three germ layers
same,cells positive for WNT4 and CD44,[3]; 1 μM RI,not the 1 μM RI group
same,expression of cTnT and CONNEXIN-43 (CX-43),[3]; 1 μM RI,highly expressed
same,staining of neural lineage markers TUJ-1 and MUSASHI-1,[3]; 1 μM RI,no evident staining
same,cells positive for WNT4 and CD44,[3]; 10 μM RI,positive
same,expression of cTnT and CONNEXIN-43 (CX-43),[3]; 10 μM RI,either weak (for cTnT) or barely visible (for CX-43)
same,staining of neural lineage markers TUJ-1 and MUSASHI-1,[3]; 10 μM RI,positive
same,expression of cTnT and CX-43,[4]; 1 μM RI,high with an evident expression of the gap junction protein CX-43
same,immunostaining of neural markers MUSASHI and TUJ-1,[4]; 1 μM RI,negligible
same,expression of cTnT and CX-43,[4]; 10 μM RI,"low and negligible, respectively"
same,immunostaining of neural markers MUSASHI and TUJ-1,[4]; 10 μM RI,existence of MUSASHI- and TUJ-1-positive cells
